Data set [1] deals with T1, mouse TSPO recombinant protein (TSPO proteoliposomes) (Mus musculus, UniProt P50637).
T1 construct: His tag; made in house; host or cells: Escherichia coli BL21(DE3) pLysS, pET15b vector
Put plainly: SPR single-cycle kinetics on TSPO proteoliposomes. It is filed as binding. The method, then: (§1) Cells of the BL21(DE3) pLysS Escherichia coli strain were transformed with the pET15b vector, from which the expression of mouse TSPO recombinant protein was induced by 1 mM isopropyl-1-thiol-β-D-galactopyranoside as previously described ([Robert and Lacapère, 2010]; [Senicourt et al., 2017]). Cells were harvested and resuspended in lysis buffer (150 mM NaCl and 50 mM HEPES-Na, pH 7.8) with the addition of 1 mg/ml lysozyme and sonicated thoroughly. The lysate was centrifuged at 15,000 g at 4°C for 20 min to pellet the insoluble inclusion bodies. The final pellet of inclusion bodies was solubilized in binding buffer (150 mM NaCl, 50 mM HEPES-Na, 1% SDS (wt/vol), pH 7.8) and was purified by the Ni-NTA gravity flow column.
Proteoliposomes composed of DMPC/DMPE (9:1) and TSPO in a 5:1 (wt/wt) ratio were prepared using a previously described method ([Ostuni et al., 2010]). Liposomes composed of DMPC/DMPE (9:1) were prepared as published previously ([Hatty et al., 2014]). A few milligrams of DMPC and DMPE were weighed into a round-bottom glass flask, and chloroform and methanol were added to dissolve them. A thin lipid film was prepared by a rotary evaporator and dried under vacuum for at least 3 h to remove all traces of chloroform and methanol. The dry lipid film was resuspended in PBS buffer (10 mM phosphate buffer, 2.7 mM KCl, 137 mM NaCl) to a concentration of 1 mg/ml, hydrated for 2 h at 45–55°C, and finally sonicated to produce small unilamellar vesicles. The suspension of small unilamellar vesicles was then kept at 45°C for use on the same day. The sizes of proteoliposomes and liposomes were determined by dynamic light scattering using Nicomp 380 Z3000 instrument (Parficle Sizing Systems, America).
SPR analyses were performed at 25°C with a Biacore T200 instrument. For proteoliposomes and liposomes (reference), they were immobilized on a series S L1 sensor chips. It is possible that the repeated regeneration steps in the multicycle kinetics process impairs the activity of TSPO proteoliposomes, thus we were unable to use multicycle kinetics to effectively determine the affinity of TSPO and its ligands. Therefore, the single cycle kinetics, which assumes to be as robust as the classical multicycle kinetics for measuring affinity, was used. Kinetic rate constants for the various analytes were determined using single cycle protocols where five serial 2-fold dilutions of the analytes were injected for 180 s without intervening regeneration, followed by a 300 s dissociation phase after the last injection. Interactions were measured at 30 μl/min. PBS, with addition of 1% DMSO (pH 7.4), was used as running buffer. […] For mouse TSPO in a lipid-free environment, affinity was measured according to established methods with minor modifications ([Zhang et al., 2015]). […]

The target in data set [2] is T2, mouse TSPO recombinant protein (Mus musculus, UniProt P50637).
T2 construct: made in house; host or cells: Escherichia coli BL21(DE3) pLysS, pET15b vector
As to the kind of experiment: SPR multicycle kinetics, mouse TSPO in a lipid-free environment. The format is binding. Conditions: CM5 chip, anti-His capture, read-out: affinity to mouse TSPO. Here is the method: as §1
SPR analyses were performed at 25°C with a Biacore T200 instrument. For proteoliposomes and liposomes (reference), they were immobilized on a series S L1 sensor chips. It is possible that the repeated regeneration steps in the multicycle kinetics process impairs the activity of TSPO proteoliposomes, thus we were unable to use multicycle kinetics to effectively determine the affinity of TSPO and its ligands. Therefore, the single cycle kinetics, which assumes to be as robust as the classical multicycle kinetics for measuring affinity, was used. Kinetic rate constants for the various analytes were determined using single cycle protocols where five serial 2-fold dilutions of the analytes were injected for 180 s without intervening regeneration, followed by a 300 s dissociation phase after the last injection. Interactions were measured at 30 μl/min. PBS, with addition of 1% DMSO (pH 7.4), was used as running buffer. Three consecutive 1 min injections with 10 μl/min of glycine HCl 3.0 at the end of each single-cycle kinetics regenerated the chip. For mouse TSPO in a lipid-free environment, affinity was measured according to established methods with minor modifications ([Zhang et al., 2015]). Briefly, HBS-EP buffer was used as the running buffer. […]

The subject of data set [3] is T98G human glioblastoma cells. As to the kind of experiment: Cell proliferation assay (BrdU ELISA). It is filed as cell-based. As to conditions: 48 h. Here is the method:
T98G cells were plated at 1 × 10^4 cells/well in 96-well plates. […] After 48 h of drug exposure, proliferation was indexed using a BrdU ELISA Kit (Roche Molecular Diagnostics) according to the manufacturer’s protocol, and absorption was measured at 370 nm (reference wavelength 492 nm).
In general terms: Dividing cells build labelled thymidine or BrdU into new DNA.

Data set [4] concerns T98G human glioblastoma cells. As to the kind of experiment: Cell viability assay (CellTiter Blue). The format is cell-based. As to conditions: same dosing regimen as proliferation, 48 h. The method, then: T98G cells were plated and treated as in the proliferation assays. After 48 h of drug exposure, CellTiter Blue Reagent (Promega) was added to the cells and incubated for 4 h in 5% CO2 at 37°C. Absorption was measured at 570 nm using 600 nm as a reference wavelength.

In another data set the test system is rat C6 glioma cells. As to the kind of experiment: Pregnenolone production. The format is cell-based. Conditions: 2 h.
Data set [5] deals with postoperative pain model of rats. Details: method as in Xiong et al., 2017. Conditions: ref Xiong et al., 2017, cited from earlier work.
In data set [6] the target is T3, TSPO from rat cerebral cortex (Rattus norvegicus, UniProt P16257).
T3 construct: male SD rats (240 ± 10 g) were killed by decapitation, and the cerebral cortices were dissected; from tissue; host or cells: rat (SD) cerebral cortex, crude mitochondrial/membrane pellet
T3 sequence (P16257 whole entry): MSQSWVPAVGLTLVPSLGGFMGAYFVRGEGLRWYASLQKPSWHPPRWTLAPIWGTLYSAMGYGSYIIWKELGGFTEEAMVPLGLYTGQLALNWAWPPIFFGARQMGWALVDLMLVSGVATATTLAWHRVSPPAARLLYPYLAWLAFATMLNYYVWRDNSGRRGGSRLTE
As to the kind of experiment: 3H-PK11195 saturation binding. As to conditions: 0.125–32 nM, 4°C, 2 h.
Experimental: After incubating at 4°C for 2 h, the reaction was terminated by the addition of ice-cold 50 mM Tris HCl buffer (pH 7.4) followed by vacuum filtration through Filtermat A glass microfiber filters (pretreated with 0.2% polyethylenimine) using a Brandel cell harvester. The filters were washed rapidly, and radioactivity was determined by liquid scintillation spectrometry.

The target of data set [7] is T3, TSPO from rat cerebral cortex. As to the kind of experiment: 3H-PK11195 dissociation kinetics. As to conditions: vehicle; dissociation induced by 10 μM PK11195, 4°C. The format is binding. Here is the method: Briefly, male SD rats (240 ± 10 g) were killed by decapitation, and the cerebral cortices were dissected. The tissues were homogenized in 10 volumes (ml/g) of 50 mM Tris HCl buffer containing 0.32 M sucrose (pH 7.4). The homogenates were centrifuged at 1,000 g for 10 min at 4°C. The resulting pellets were discarded, and the supernatants were centrifuged at 9,000 g for 15 min. The pellets were resuspended in 10 volumes of Tris HCl buffer containing 0.32 M sucrose (pH 7.4) and centrifuged at 13,000 g for 30 min, then resuspended in 10 volumes of Tris HCl buffer and centrifuged again at 13,000 g for 30 min. The final pellets were suspended in Tris HCl buffer and used in the binding assays. Protein concentrations were measured using the BCA Protein Assay Kit (ThermoFisher Scientific) according to the manufacturer’s instructions.
Then, samples were filtered through Filtermat A glass microfiber filters (pretreated with 0.2% polyethylenimine) using a Brandel cell harvester, and the radioactivities were measured at the indicated time points.

A further data set concerns the target TSPO. More on the design: method as in Awad and Gavish, 1987; Verma et al., 1987. As to conditions: radioligand binding experiment results from literatures, ref Awad and Gavish, 1987, Verma et al.; cited from earlier work.

Molecules are shown by their SMILES. Where two headings read alike, the source gives them in different places.

On to `CCC(C)N(C)C(=O)c1cc2ccccc2c(-c2ccccc2Cl)n1` (stereo not drawn) [PK11195], for which the results for the Kd in data set [1] and in data set [2] were 0.00197 ± 2e-05 µM and 161 ± 6.1 µM, respectively. For the same compound, the “EC20 concentration, inhibition of cell proliferation” value in data set [3] (BrdU) is approximately 75 µM. In addition, the EC50 is 81 µM in data set [3] (Homo sapiens, T98G, read-out: EC50, inhibition of cell proliferation) and 69 µM in the data set with rat C6 glioma cells (Rattus norvegicus, C6 glioma, read-out: EC50, pregnenolone production). Also, the cell viability entry in data set [4] is “not significantly affected”. Further, the “EC20 concentration, pregnenolone production” value in the data set on rat C6 glioma cells was approximately 27 µM. Besides, the “increase in pregnenolone production” value in the data set on rat C6 glioma cells (vs vehicle) is on record as “approximately 50%”. Besides, the analgesic effect entry is recorded as “can also produce a certain analgesic effect” in data set [5] (7 μg PK11195 alone, intrathecal) and “had no analgesic effect” in [5] (intrathecal injection of 0.7 μg PK11195). Moreover, the “effect on analgesic effect of intrathecal 200 μg koumine” value in [5] (intrathecal 0.7 μg PK11195 with 200 μg koumine) is recorded as “weakened the analgesic effect”.
In [6], `CCC(C)N(C)C(=O)c1cc2ccccc2c(-c2ccccc2Cl)n1` (stereo not drawn) [^3H-PK11195, reference compound] came in with a Bmax of 143.3 ± 5.4 fmol/mg protein. Also, the “dissociation rate of 3H-PK11195” value in [7] was 0.0419 ± 0.0016 min⁻¹.
Consider `C=CC1=C(C)c2cc3[nH]c(cc4nc(cc5[nH]c(cc1n2)c(C)c5CCC(=O)O)C(CCC(=O)O)=C4C)c(C)c3C=C` [protoporphyrin IX], for which the Kd in [1] (SPR single-cycle kinetics, TSPO proteoliposomes on L1 chip, 25°C, Langmuir 1:1 fit, read-out: KD) is 0.0126 ± 0.00039 µM; at TSPO, 0.0145 ± 0.0107 µM.

Values taken from PMC8264504, “Identification of Koumine as a Translocator Protein 18 kDa Positive Allosteric Modulator for the Treatment of Inflammatory and Neuropathic Pain” (Frontiers in Pharmacology, 2021).
